Assay results reported in patent EP2236511A2, “LIGANDS OF ALPHA-ADRENOCEPTORS AND OF DOPAMINE, HISTAMINE, IMIDAZOLINE AND SEROTONIN RECEPTORS AND THE USE THEREOF” (priority 2007, dated 2009).
Counter-ions that a name gives are not always drawn. Like-named read-outs stand apart in the source and are kept apart here.

Experiments:
[1] = biological target: T1, adrenergic receptor α1A (Rattus norvegicus, UniProt P43140); assay: Radioligand binding to adrenergic receptor α1A ([3H] Prazosin, rat submaxillary gland membranes); details: for nH: Receptor α1A
T1 construct: membrane species from rat submaxillary glands (rat of Wistar breed) are prepared; from tissue; host or cells: rat (Wistar) submaxillary gland
T1 sequence (P43140 1-466): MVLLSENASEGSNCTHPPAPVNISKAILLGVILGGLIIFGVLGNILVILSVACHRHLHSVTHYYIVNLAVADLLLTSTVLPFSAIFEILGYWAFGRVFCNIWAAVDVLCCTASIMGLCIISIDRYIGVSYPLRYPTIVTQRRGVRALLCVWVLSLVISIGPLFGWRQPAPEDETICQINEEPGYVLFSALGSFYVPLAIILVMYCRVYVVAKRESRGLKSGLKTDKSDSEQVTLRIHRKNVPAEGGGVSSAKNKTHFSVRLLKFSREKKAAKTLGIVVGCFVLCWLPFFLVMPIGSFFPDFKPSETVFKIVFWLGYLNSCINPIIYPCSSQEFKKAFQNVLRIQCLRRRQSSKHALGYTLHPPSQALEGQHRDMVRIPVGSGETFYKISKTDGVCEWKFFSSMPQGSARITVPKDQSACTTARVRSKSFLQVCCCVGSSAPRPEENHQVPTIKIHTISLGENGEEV
Experimental: Determination of investigated compounds' binding to α1A receptor was carried out according to the method described in [Michel AD, Loury DN and Whiting R1. Identification of a single α1A-adrenoceptor corresponding to the α1A-subtype in rat submaxillary gland. […] Prazosin is used as positive control.

[2] = biological target: T2, human α1D receptor (Homo sapiens, UniProt P25100); assay: Radioligand binding to adrenergic receptor α1D ([3H] Prazosin, HEK-293 membranes); details: for nH: Receptor α1D
T2 construct: expressed in transfected cells; host or cells: HEK-293
T2 sequence (P25100 1-572): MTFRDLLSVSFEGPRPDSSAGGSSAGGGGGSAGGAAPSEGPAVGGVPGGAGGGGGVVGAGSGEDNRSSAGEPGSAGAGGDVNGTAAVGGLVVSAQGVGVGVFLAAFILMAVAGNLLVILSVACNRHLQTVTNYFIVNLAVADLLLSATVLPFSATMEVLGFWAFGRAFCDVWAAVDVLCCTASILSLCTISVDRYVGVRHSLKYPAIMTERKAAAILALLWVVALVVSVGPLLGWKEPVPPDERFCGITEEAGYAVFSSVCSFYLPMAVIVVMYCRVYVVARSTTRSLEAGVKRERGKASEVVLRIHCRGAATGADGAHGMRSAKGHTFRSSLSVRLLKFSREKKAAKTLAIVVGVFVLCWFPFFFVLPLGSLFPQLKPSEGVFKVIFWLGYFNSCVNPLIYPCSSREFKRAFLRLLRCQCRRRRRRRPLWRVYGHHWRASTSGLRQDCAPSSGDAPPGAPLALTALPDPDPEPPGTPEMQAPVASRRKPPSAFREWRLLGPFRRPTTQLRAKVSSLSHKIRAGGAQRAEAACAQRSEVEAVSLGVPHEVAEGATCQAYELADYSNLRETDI
Source text: 6-C. […] For this purpose sDNA of human α1D receptor is expressed in HEK-293 cells, as it was described in [TL Theroux, TA Esbenshade, RD Peavy and KP Minneman. Coupling efficiencies of human alpha 1-adrenergic receptor subtypes: titration of receptor density and responsiveness with inducible and repressible expression vectors. Mol Pharmacol.; 50: 1376-1387, 1996]. […] Characterization of an α1D-adrenoceptor mediating the contractile response of rat aorta to noradrenaline. […] Prazosin is used as positive control.

[3] = biological target: T3, human H2 receptor (Homo sapiens, UniProt P25021); assay: Radioligand binding to histamine receptor H2 ([125I] Aminopotentidine, CHO-K1 membranes); details: for inhibition at 10 µM: read-out: Histamine receptors, % inhibition H2
T3 construct: expressed in transfected cells; host or cells: CHO-K1
T3 sequence (P25021 whole entry): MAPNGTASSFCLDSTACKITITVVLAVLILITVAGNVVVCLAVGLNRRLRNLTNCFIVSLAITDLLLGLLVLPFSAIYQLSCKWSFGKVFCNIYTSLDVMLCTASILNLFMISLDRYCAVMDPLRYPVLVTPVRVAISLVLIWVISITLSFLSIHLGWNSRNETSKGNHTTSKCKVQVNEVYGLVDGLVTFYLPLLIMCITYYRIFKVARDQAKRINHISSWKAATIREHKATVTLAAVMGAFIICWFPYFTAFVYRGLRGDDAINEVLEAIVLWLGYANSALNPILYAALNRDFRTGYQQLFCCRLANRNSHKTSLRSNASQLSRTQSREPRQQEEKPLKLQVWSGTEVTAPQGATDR
Source text: Proc Natl Acad Sci USA. 87(5): 1658-1662, 1990]. […] Proc Natl Acad Sci USA. 87(5): 1658-1662, 1990]. […] Tiotidine is used as positive control.

[4] = biological target: T4, recombinant human 5-HT2C receptor (Homo sapiens, UniProt P28335); assay: Radioligand binding to serotonin receptor 5-HT2C ([3H] Mesulergine, CHO-K1 membranes); details: for nH: 5-HT2C
T4 construct: expressed in transfected cells; host or cells: CHO-K1
T4 sequence (P28335 33-458): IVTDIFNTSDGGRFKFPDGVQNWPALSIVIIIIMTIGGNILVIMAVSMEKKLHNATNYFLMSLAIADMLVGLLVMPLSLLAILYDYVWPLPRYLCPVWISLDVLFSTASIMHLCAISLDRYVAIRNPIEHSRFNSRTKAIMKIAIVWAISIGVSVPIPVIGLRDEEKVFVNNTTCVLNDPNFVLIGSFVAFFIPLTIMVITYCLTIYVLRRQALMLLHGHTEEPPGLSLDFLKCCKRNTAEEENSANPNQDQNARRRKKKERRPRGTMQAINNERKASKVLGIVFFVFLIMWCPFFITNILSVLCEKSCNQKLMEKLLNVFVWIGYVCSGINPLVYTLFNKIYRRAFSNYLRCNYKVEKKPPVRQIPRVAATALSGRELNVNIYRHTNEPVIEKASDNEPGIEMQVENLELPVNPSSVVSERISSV
Source text: J Neurochem. 69: 1449 - 1458, 1997]. […] SB242084 is used as positive control.

[5] = biological target: T5, recombinant human 5-HT6 receptor (Homo sapiens, UniProt P50406); assay: Radioligand binding to serotonin receptor 5-HT6 ([3H] Lysergic acid diethylamide, HeLa membranes)
T5 construct: expressed in transfected cells; host or cells: HeLa
T5 sequence (P50406 whole entry): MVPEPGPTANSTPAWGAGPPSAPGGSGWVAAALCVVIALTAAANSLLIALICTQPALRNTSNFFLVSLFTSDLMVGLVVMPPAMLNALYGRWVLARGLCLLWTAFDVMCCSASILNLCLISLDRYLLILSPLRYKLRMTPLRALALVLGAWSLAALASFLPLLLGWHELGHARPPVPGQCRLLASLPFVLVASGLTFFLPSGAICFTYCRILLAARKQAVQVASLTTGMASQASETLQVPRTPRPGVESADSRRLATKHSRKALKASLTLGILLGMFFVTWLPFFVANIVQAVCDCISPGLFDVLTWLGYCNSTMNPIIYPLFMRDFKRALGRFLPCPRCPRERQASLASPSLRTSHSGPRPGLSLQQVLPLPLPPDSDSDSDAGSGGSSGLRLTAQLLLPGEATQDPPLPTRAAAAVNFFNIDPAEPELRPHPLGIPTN
Source text: Mol Pharmacol. 43:320-327, 1993]. […] Methiothepin is used as positive control.

[6] = test system: imidazoline receptor I2; assay: Radioligand binding to imidazoline receptor I2 ([3H] Idazoxan, rat brain membranes)
Experimental: For this purpose membrane species are prepared from rat (Wistar) brain homogenates by homogenization of them in glass homogenizer with the subsequent separation of plasmatic membranes from cell nuclei, mitochondrias and cell wreckages by differential centrifugation. […] After incubation the samples are filtered in vacuo on glass-microfiber filters G/F (Millipor, USA), filters are washed three times with cold solution of medium and radioactivity is measured by scintillation counter MicroBeta 340 (Perkin Elmer, USA). […] Idazoxan is used as positive control.
The tested compounds' binding to the receptor is determined by their ability to displace the radioligand and expressed in percent of displacement (%I). Values of %I are calculated according to the following equation: %I = (TA-CA)/(TA-NA)*100, [formula] wherein: TA - is the overall radioactivity in the presence of radioligand only, CA - is the radioactivity in the presence of radioligand and tested compound and NA - is a radioactivity in the presence of radioligand and Idazoxan (1 µM).

[7] = biological target: T6, serotonin receptor 5-HT1B (Rattus norvegicus, UniProt P28564); assay: Radioligand binding to serotonin receptor 5-HT1B ([125I] cyanopindolol, rat brain cortex membranes)
T6 construct: membrane species are prepared from rat brains (Wistar) by homogenization of species of rat brain-cortices; from tissue; host or cells: rat (Wistar) brain cortex
T6 sequence (P28564 whole entry): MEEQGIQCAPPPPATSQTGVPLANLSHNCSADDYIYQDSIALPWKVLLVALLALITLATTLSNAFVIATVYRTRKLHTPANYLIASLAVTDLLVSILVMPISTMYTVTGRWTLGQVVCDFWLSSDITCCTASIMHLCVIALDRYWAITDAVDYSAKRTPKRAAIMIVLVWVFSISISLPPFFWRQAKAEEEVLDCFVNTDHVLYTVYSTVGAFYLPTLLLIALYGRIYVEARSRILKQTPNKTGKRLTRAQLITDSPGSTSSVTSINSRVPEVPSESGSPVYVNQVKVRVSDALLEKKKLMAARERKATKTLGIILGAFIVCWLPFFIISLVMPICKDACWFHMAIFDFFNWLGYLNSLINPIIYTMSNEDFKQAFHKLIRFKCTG
Source text: Serotonin is used as positive control.

[8] = biological target: T7, recombinant human 5-HT2B receptor (Homo sapiens, UniProt P41595); assay: Radioligand binding to serotonin receptor 5-HT2B ([3H] Lysergic acid diethylamide, CHO-K1 membranes)
T7 construct: expressed in transfected cells; host or cells: CHO-K1
T7 sequence (P41595 whole entry): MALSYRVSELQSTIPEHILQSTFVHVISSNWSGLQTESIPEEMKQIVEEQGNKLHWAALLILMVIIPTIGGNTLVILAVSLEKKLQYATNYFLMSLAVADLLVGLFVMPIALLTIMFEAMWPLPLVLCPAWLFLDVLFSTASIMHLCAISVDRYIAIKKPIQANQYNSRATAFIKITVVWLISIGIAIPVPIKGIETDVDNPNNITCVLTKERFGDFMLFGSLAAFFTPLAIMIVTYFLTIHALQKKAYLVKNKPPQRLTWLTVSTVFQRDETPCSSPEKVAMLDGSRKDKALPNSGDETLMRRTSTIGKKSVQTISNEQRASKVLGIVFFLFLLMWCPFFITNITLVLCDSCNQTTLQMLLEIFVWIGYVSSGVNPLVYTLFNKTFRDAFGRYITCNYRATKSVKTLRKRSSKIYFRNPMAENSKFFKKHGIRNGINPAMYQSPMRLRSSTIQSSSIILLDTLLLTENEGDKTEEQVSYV

[9] = read-out: α-Adrenoceptor, % inhibition α1A
[10] = read-out: α-Adrenoceptor, % inhibition α1D
[11] = last block of Table 11: receptor printed 5-HT6 in r18, cell blank in r19-r21

With `Cc1ccc2c(c1)[C@@H]1CN(C)CCC[C@@H]1N2CCc1cccnc1` (relative stereo) [1.6.1(1)·3HCl] the inhibition at 10 µM [1, 9] was 90%, the inhibition at 10 µM [2, 10] was 90% and the inhibition at 10 µM [3] was 48%. For the same compound, the inhibition at 1 µM ([4]; read-out: 5-HT2C % inhibition) was 95%, the inhibition at 1 µM ([5]; read-out: 5-HT6 % inhibition) was 84% and the “% inhibition” value ([6]; 10 µM ligand) was 80%.
In the case of `Cc1ccc2c(c1)[C@@H]1CN(C)CCC[C@@H]1N2CCc1ccc(C)nc1` (relative stereo) [1.6.1(2)·3HCl], the inhibition at 10 µM [2, 10] is reported as 87%, the inhibition at 10 µM [3] is reported as 66% and the inhibition at 10 µM ([7]; read-out: 5-HT1B % inhibition) is reported as -6%. The inhibition at 10 µM ([8]; read-out: 5-HT2B % inhibition) was -2%, the inhibition at 10 µM ([4]; read-out: 5-HT2C % inhibition) was 4% and the inhibition at 1 µM ([5]; read-out: 5-HT6 % inhibition) was 76%. The inhibition at 10 µM ([5]; read-out: 5-HT6 % inhibition) was -10% and the “% inhibition” value ([6]; 10 µM ligand) was 80%.
Compound `Cc1ccc2c(c1)c1c(n2CCc2ccccc2)CCN(C)C1` [1.1.2(1-2)·HCl, 2,8-dimethyl-5-phenethyl-1,2,3,4-tetrahydro-1H-pyrido[4,3-b]indole hydrochloride] has an inhibition at 10 µM [1, 9] of 99%, an inhibition at 10 µM [2, 10] of 102% and an inhibition at 10 µM [3] of 102%. The inhibition at 10 µM ([7]; read-out: 5-HT1B % inhibition) was 82%, the nH ([8]; 5-HT2B) was 0,868 and the inhibition at 10 µM ([8]; read-out: 5-HT2B % inhibition) was 100%. The IC50 [6] was 268 nM, the Ki [6] was 179 nM and the “% inhibition” value ([6]; 10 µM ligand) was 93%.
With `Cc1ccc(CCn2c3c(c4cc(C)ccc42)CN(C)CC3)cc1` [1.1.2(1-3), 2,8-dimethyl-5-[2-(4-methylphenyl)-ethyl]-1,2,3,4-tetrahydro-1H-pyrido[4,3-b]indole] the nH [1] was 1,26, the nH [2] was 1,21 and the 5-HT1B % inhibition ([7]; 10 µM ligand) was 59%. The 5-HT2B % inhibition ([8]; 10 µM ligand) was 95%, the 5-HT2C % inhibition ([4]; 10 µM ligand) was 98% and the “% inhibition” value ([6]; 10 µM ligand) was 93%.
Compound `Cc1ccc2c(c1)c1c(n2CCc2ccccn2)CCN(C)C1` [1.1.2(2-3)·2HCl] has an inhibition at 10 µM [1, 9] of 81%, an inhibition at 10 µM [2, 10] of 92% and an inhibition at 10 µM [3] of 82%. It also gave an inhibition at 1 µM ([7]; read-out: 5-HT1B % inhibition) of 65%, a nH ([8]; 5-HT2B) of 0.913 and an inhibition at 1 µM ([8]; read-out: 5-HT2B % inhibition) of 89%. For the same compound, the inhibition at 1 µM ([4]; read-out: 5-HT2C % inhibition) was 96%, the IC50 [5] was 2.14 nM and the Ki [5] was 1.23 nM. The nH ([5]; 5-HT6) was 0.744, the nH [5, 11] was 0.655 and the “% inhibition” value ([6]; 10 µM ligand) was 88%.
Compound `Cc1ccc2c(c1)c1c(n2CCc2ccc(C)nc2)CCN(C)C1` [1.1.2(4-2)·2HCl] has an inhibition at 10 µM ([1]; 10 µM ligand, read-out: α-Adrenoceptor, % inhibition α1A) of 97%, a nH [1] of 1.12 and an inhibition at 10 µM ([7]; 10 µM ligand, read-out: 5-HT1B % inhibition) of 19%. The inhibition at 10 µM ([8]; 10 µM ligand, read-out: 5-HT2B % inhibition) was 47%, the inhibition at 10 µM ([4]; 10 µM ligand, read-out: 5-HT2C % inhibition) was 76% and the inhibition at 10 µM ([5]; 10 µM ligand, read-out: 5-HT6 % inhibition) was 90%. The IC50 [6] was 310 nM, the Ki [6] was 210 nM and the “% inhibition” value ([6]; 10 µM ligand) was 98%.
`Cc1ccc2c(c1)c1c(n2CCc2ccccn2)CCCN(C)C1` [1.2.2(2-2)] was tested, and the “α-Adrenoceptor, % inhibition α1A” value ([1]; 10 µM ligand) was 64%, the “α-Adrenoceptor, % inhibition α1D” value ([2]; 10 µM ligand) was 63% and the 5-HT1B % inhibition ([7]; 10 µM ligand) was 6%. The 5-HT6 % inhibition ([5]; 10 µM ligand) was 21% and the “% inhibition” value ([6]; 10 µM ligand) was 80%.
`CN1CCc2c(c3ccccc3n2Cc2ccccc2)C1` [1.9(1)·1/2NDSA, bis-(5-benzyl-2-methyl-2,3,4,5-tetrahydro-1H-pyrido[4,3-b]indole) naphthalene-1,5-disulfonate] was tested, and the nH [1] was 1,08, the inhibition at 1 µM [1, 9] was 67% and the nH [2] was 1,05. For the same compound, the inhibition at 3 µM [2, 10] was 70%, the “Histamine receptors, % inhibition H2” value ([3]; 10 µM ligand) was 97% and the inhibition at 0.3 µM ([7]; read-out: 5-HT1B % inhibition) was 4%. It also gave an IC50 ([8]; 5-HT2B) of 31.4 nM, a Ki ([8]; 5-HT2B) of 20 nM and a nH ([8]; 5-HT2B) of 0.552. For the same compound, the nH [4] was 0.987, the nH ([5]; 5-HT6) was 1.07 and the inhibition at 0.3 µM ([5]; read-out: 5-HT6 % inhibition) was 78%. The IC50 [6] was 169 nM, the Ki [6] was 110 nM and the “% inhibition” value ([6]; 0.3 µM ligand) was 87(0.3 µM) %.
`CN1CCc2c(c3ccccc3n2Cc2ccccc2)C1.Cl` [1.9(1)·HCl, 5-benzyl-2-methyl-2,3,4,5-tetrahydro-1H-pyrido[4,3-b]indole hydrochloride] showed an inhibition at 10 µM [1, 9] of 70%, an inhibition at 10 µM [3] of 97% and an inhibition at 10 µM ([7]; read-out: 5-HT1B % inhibition) of 13%. For the same compound, the nH ([8]; 5-HT2B) was 0.836, the inhibition at 10 µM ([8]; read-out: 5-HT2B % inhibition, 10 µM ligand) was 99% and the nH [4] was 1.21. The inhibition at 0.1 µM ([4]; read-out: 5-HT2C % inhibition) was 79%, the inhibition at 10 µM ([4]; read-out: 5-HT2C % inhibition) was 97% and the IC50 [5] was 110 nM. It also gave a Ki [5] of 63.2 nM, a nH ([5]; 5-HT6) of 1.04 and a nH [5, 11] of 1.32. For the same compound, the inhibition at 10 µM ([5]; read-out: 5-HT6 % inhibition) was 71%, the “% inhibition” value ([6]; 3 µM ligand) was 75 (3 µM) % and the IC50 ([6]; hydrochloride) was 994 nM. For the same compound, the Ki ([6]; hydrochloride) was 662 nM.
